Test results as given in PubChem BioAssay AID1963825 (Molecular Pharmacology Branch, DTP, NCI, 2024).

Assay: Anticancer human tumor 997537-175-T-J1-PDC patient-derived colon adenocarcinoma cell line growth inhibition [POLQ]
Conditions: 997537-175-T-J1-PDC complex spheroid viability, combination with POLQ inhibitors; for IC50: curve of first compound; for viability, T/C: stronger effect = lower value
In short: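 Patient-derived tumour cells were co-cultured with HUVEC and mesenchymal stem cells as multicellular spheroids at 37 °C. They were treated with POLQ inhibitors (novobiocin, ART-558, RP6685) alone or combined with other agents. Top concentrations were at or near clinical Cmax (otherwise 10 microM; SN-38 at 1 microM), decreasing in half-log steps.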
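Note: luminescence signal used as a surrogate for viable cells; spheroids exposed to drugs for seven days before readout.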

Work on `COc1cc(C2c3cc4c(cc3C(OC3OC5COC(C)OC5C(O)C3O)C3COC(=O)C23)OCO4)cc(OC)c1O` (configuration not stated) + Nc1ccc(C#CCN(C(=O)Cc2ncc(C(F)(F)F)cc2C(F)(F)F)c2ccc(F)cc2)nn1 yielded an IC50 (second compound 0.0316 µM) of over 10 µM, an IC50 (second compound 0.1 µM) of over 10 µM and an IC50 (second compound 0.316 µM) of over 10 µM. The IC50 (second compound 1 µM) was over 10 µM, the IC50 (second compound 3.16 µM) was over 10 µM and the IC50 (second compound 10 µM) was 7.77 µM. The viability, T/C (second compound 0.0316 µM, first compound 0.0316 µM) was 101%, the viability, T/C (second compound 0.0316 µM, first compound 0.1 µM) was 105% and the viability, T/C (second compound 0.0316 µM, first compound 0.316 µM) was 93.2%. The viability, T/C (second compound 0.0316 µM, first compound 1 µM) was 94.2%, the viability, T/C (second compound 0.0316 µM, first compound 3.16 µM) was 68% and the viability, T/C (second compound 0.0316 µM, first compound 10 µM) was 67.7%. The viability, T/C (second compound 0.1 µM, first compound 0.0316 µM) was 112%, the viability, T/C (second compound 0.1 µM, first compound 0.1 µM) was 96.4% and the viability, T/C (second compound 0.1 µM, first compound 0.316 µM) was 99.5%. The viability, T/C (second compound 0.1 µM, first compound 1 µM) was 86%, the viability, T/C (second compound 0.1 µM, first compound 3.16 µM) was 65.7% and the viability, T/C (second compound 0.1 µM, first compound 10 µM) was 66.2%. It also gave a viability, T/C (second compound 0.316 µM, first compound 0.0316 µM) of 92.4%, a viability, T/C (second compound 0.316 µM, first compound 0.1 µM) of 99.5% and a viability, T/C (second compound 0.316 µM, first compound 0.316 µM) of 86.5%. The viability, T/C (second compound 0.316 µM, first compound 1 µM) was 83.4%, the viability, T/C (second compound 0.316 µM, first compound 3.16 µM) was 75.4% and the viability, T/C (second compound 0.316 µM, first compound 10 µM) was 69.7%. For the same compound, the viability, T/C (second compound 1 µM, first compound 0.0316 µM) was 92.4%, the viability, T/C (second compound 1 µM, first compound 0.1 µM) was 96.9% and the viability, T/C (second compound 1 µM, first compound 0.316 µM) was 97.1%. The viability, T/C (second compound 1 µM, first compound 1 µM) was 81%, the viability, T/C (second compound 1 µM, first compound 3.16 µM) was 61% and the viability, T/C (second compound 1 µM, first compound 10 µM) was 67.7%. It also gave a viability, T/C (second compound 3.16 µM, first compound 0.0316 µM) of 91.1%, a viability, T/C (second compound 3.16 µM, first compound 0.1 µM) of 93.7% and a viability, T/C (second compound 3.16 µM, first compound 0.316 µM) of 94.6%. It also gave a viability, T/C (second compound 3.16 µM, first compound 1 µM) of 82.4%, a viability, T/C (second compound 3.16 µM, first compound 3.16 µM) of 57.8% and a viability, T/C (second compound 3.16 µM, first compound 10 µM) of 54.3%. For the same compound, the viability, T/C (second compound 10 µM, first compound 0.0316 µM) was 96%, the viability, T/C (second compound 10 µM, first compound 0.1 µM) was 104% and the viability, T/C (second compound 10 µM, first compound 0.316 µM) was 99.5%. For the same compound, the viability, T/C (second compound 10 µM, first compound 1 µM) was 91%, the viability, T/C (second compound 10 µM, first compound 3.16 µM) was 61.4% and the viability, T/C (second compound 10 µM, first compound 10 µM) was 46.8%.
